Calls of active or inactive are those of the source. The rule behind the calls is not given here.
Columns and labels:
[1] = target: T1, Protein deacetylase HDAC6 (Homo sapiens, UniProt Q9UBN7); assay: Inhibition of recombinant human HDAC6 (unknown origin)
T1 sequence (Q9UBN7 whole entry): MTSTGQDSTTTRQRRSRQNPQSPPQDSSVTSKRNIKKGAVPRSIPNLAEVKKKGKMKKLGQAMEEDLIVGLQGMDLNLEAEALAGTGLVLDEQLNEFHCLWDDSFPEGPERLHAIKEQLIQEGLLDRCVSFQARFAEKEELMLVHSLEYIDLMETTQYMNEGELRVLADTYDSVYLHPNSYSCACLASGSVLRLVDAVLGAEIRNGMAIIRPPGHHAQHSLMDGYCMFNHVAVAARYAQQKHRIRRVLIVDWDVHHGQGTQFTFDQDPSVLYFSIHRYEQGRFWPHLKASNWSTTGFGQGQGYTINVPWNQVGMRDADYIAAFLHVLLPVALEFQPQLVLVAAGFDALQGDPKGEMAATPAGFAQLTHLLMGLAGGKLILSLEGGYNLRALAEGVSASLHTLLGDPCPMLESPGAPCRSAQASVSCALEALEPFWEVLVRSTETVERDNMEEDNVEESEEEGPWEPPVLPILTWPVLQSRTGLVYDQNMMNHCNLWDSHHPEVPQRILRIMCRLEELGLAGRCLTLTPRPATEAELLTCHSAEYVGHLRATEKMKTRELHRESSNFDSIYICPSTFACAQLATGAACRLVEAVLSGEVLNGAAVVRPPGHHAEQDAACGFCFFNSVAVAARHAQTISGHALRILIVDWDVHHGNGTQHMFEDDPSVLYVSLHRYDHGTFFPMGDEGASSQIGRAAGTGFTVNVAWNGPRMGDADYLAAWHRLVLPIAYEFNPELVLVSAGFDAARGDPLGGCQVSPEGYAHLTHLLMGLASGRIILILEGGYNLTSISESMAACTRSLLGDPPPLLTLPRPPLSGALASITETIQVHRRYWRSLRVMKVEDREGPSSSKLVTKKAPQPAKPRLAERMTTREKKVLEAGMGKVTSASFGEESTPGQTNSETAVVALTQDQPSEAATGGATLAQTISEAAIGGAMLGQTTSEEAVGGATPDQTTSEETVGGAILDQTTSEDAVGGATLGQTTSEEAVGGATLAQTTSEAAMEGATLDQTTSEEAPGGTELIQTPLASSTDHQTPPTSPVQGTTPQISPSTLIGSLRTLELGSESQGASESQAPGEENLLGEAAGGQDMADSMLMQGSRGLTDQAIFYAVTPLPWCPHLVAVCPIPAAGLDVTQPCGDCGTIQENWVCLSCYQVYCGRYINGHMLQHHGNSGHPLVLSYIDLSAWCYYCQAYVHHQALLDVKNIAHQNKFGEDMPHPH

[2] = target: T2, Histone deacetylase 11 (Homo sapiens, UniProt Q96DB2); assay: Inhibition of recombinant human HDAC11 preincubated for 10 mins followed by substrate addition by fluorescence based analysis
T2 sequence (Q96DB2 whole entry): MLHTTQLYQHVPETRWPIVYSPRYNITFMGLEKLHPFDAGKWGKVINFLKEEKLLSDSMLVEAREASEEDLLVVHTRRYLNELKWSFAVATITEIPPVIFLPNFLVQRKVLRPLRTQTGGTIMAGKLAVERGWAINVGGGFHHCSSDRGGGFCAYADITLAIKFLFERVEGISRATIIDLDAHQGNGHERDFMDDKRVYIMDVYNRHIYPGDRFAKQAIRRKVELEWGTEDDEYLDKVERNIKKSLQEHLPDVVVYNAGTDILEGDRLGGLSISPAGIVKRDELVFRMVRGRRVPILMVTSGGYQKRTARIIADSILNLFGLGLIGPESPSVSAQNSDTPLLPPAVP

[3] = Stability of compound in DMEM/DMSO/acetonitrile at pH 7.4 measured after 24 hrs by HPLC analysis; assay type: physicochemical; details: read-out: Stability
[4] = Stability of compound in DMEM/DMSO/acetonitrile at pH 7.4 measured after 48 hrs by HPLC analysis; assay type: physicochemical; details: read-out: Stability
[5] = test system: HEK293; assay: Cytotoxicity against HEK293 cells assessed as reduction in cell viability at 50 uM after 24 hrs by alamar blue assay; assay type: toxicity, cell-based; details: human, hek293, 24 h
[6] = target: T3, Histone deacetylase 8 (Homo sapiens) (UniProt Q9BY41); assay: Inhibition of HDAC8 in human Jurkat T cells assessed as increase in H3K27 acetylation at 10 uM after 6 hrs by Western blot analysis; assay type: cell-based
T3 sequence (whole entry): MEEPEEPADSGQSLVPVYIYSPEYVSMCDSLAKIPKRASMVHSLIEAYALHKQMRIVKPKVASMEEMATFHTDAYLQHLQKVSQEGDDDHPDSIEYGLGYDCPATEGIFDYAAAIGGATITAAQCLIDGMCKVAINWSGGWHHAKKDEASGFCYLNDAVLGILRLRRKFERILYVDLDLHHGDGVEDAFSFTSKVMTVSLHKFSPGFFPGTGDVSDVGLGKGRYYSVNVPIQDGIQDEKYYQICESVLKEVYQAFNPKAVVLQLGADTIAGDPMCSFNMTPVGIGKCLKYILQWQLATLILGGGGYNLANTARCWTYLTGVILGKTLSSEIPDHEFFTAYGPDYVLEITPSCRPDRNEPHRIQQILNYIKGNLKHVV

[7] = target: T3, Histone deacetylase 8 (Homo sapiens); assay: Inhibition of HDAC8 in human Jurkat T cells assessed as upregulation of BCL6 expression after 6 hrs by RT-qPCR analysis; assay type: cell-based; details: dose 0.1-10 µM, DDE = dose-dependent effect
[8] = Toxicity in C57BL/6 mouse assessed as change in heart weight at 5 to 10 mg/kg, ip administered 5 days per week for 2 weeks by H and E staining based assay; assay type: organism-based; details: in vivo, 336 h, dose 5-10 mg/kg
[9] = Toxicity in C57BL/6 mouse assessed as change in lung weight at 5 to 10 mg/kg, ip administered 5 days per week for 2 weeks by H and E staining based assay; assay type: organism-based; details: in vivo, 336 h, dose 5-10 mg/kg

IC50 [1]: > 20000 nM
IC50 [2]: 180 nM
remaining at 24 h [3]: 105%
remaining at 48 h [4]: 104%
inhibition [6]: Active
inhibition [7]: Dde
SMILES: CCCCCCNNC(=O)c1ccc(-c2ccc(CNC(C)=O)cc2)cc1
Cell viability [5]: 121.3%
Activity [8]: Non-Toxic
Activity [9]: Non-Toxic
